In paper PMC9184620, “TAS1553, a small molecule subunit interaction inhibitor of ribonucleotide reductase, exhibits antitumor activity by causing DNA replication stress” (Communications Biology, 2022):

Assays:
Plasma exposure in rats = details: nude rats
Protocol: First, we analyzed the exposure of TAS1553 when administered orally.
Next, we evaluated the antitumor activity of a high-dose administration of TAS1553 and cytarabine in rats bearing MV-4-11 xenografts. […] The rats were treated with cytarabine for 5 days at 16 and 32 mg/kg. […] In addition to the hematologic tumor, we evaluated the antitumor activity of TAS1553 in mice implanted with HCC38 cell line as a solid tumor model. […] Finally, TAS1553 was evaluated for its survival benefit in a mouse model. To achieve this, we established mice bone marrow cells harboring the human MLL-AF9 fusion gene, which is known as a driver gene for AML in humans as well as mice[48]. Mice were transplanted with the cells through the tail vein and the treatment with TAS1553 was started 11 days post-implantation.
F344/NJcl-rnu/rnu rats were orally administered with TAS1553 (two animals per group). The plasma samples were collected at each point. TAS1553 concentrations in plasma were measured with the LC-MS/MS.

human R1 = molecular target: T1, human R1 (Homo sapiens, UniProt P23921); assay: Surface plasmon resonance binding analysis; details: SPR, steady-state affinity, three independent experiments
T1 construct: made in house; host or cells: Escherichia coli
T1 sequence (P23921 1-792): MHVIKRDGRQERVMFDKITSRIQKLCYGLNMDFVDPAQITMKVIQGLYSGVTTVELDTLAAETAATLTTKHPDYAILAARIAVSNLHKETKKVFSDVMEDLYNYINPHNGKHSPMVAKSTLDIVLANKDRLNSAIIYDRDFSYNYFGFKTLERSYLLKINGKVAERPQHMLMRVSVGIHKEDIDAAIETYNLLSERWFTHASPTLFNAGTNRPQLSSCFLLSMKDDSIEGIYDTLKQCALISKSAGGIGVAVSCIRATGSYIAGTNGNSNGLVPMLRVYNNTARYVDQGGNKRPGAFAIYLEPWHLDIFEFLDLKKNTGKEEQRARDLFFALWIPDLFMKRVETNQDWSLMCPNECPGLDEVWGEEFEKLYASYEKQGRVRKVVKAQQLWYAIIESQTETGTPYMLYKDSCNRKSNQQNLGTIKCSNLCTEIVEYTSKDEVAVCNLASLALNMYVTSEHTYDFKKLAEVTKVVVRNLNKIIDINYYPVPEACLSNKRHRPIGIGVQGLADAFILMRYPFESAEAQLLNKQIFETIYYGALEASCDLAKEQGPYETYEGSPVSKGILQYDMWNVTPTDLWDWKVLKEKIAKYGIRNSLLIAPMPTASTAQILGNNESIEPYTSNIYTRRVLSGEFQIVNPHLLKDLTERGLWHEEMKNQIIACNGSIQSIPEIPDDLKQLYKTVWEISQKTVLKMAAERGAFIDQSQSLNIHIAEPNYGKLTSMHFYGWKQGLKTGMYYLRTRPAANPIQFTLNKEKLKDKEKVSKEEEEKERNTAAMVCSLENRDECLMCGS
Protocol: The binding affinity of TAS1553 to the R1 subunit was investigated using surface plasmon resonance (SPR) binding analysis. […] Next, we evaluated the inhibitory effect of TAS1553 against the enzymatic activity of RNR, consisting of R1 and R2 recombinant proteins. RNR activity was determined by its ability to reduce cytidine diphosphate (CDP) to deoxycytidine diphosphate (dCDP), based on a previous report. […] In addition to the inhibitory effect on RNR, TAS1553 was evaluated in a Eurofins LeadProfilingScreen panel assay including 68 proteins, such as ion channels, transporters, nuclear receptors, and G protein-coupled receptors, to examine its potential adverse activity.

[1] = system: intracellular dNTP pools in HCC38 and MV-4-11 cells; assay: Measurement of intracellular dNTP/ATP pools by LC-MS/MS; assay type: cell-based, human
Protocol: Next, we examined the RNR inhibitory effect of TAS1553 in cells by measuring dNDP pools which are direct products of RNR. However, all dNDP pools could not be detected using LC-MS/MS due to detection limit. Then we determined whether TAS1553 affected the intracellular dNTP pools as surrogate marker for RNR inhibition in cells. LC-MS/MS could not measure dGTP pool due to masking dGTP peak by ATP, as previously reported; thus, dATP, dCTP and dTTP pools were analyzed. HCC38 and MV-4-11, an acute myelogenous leukemia (AML) cell line, were exposed to TAS1553, and the peak area of each dNTP was determined using cell extracts.
Next, we evaluated both concentration-dependent and time-dependent effects of TAS1553 on the dATP pool in HCC38 and MV-4-11 cell lines using absolute quantification. After 2 h of TAS1553 exposure, there was a concentration-dependent reduction of intracellular dATP pool in both cell lines (Fig. 2c). Furthermore, the intracellular dATP pool was reduced within 30 minutes when treated with TAS1553 at 1 or 10 µmol/L in both cell lines (Fig. 2d), consistent with its inhibitory effect on the protein-protein interaction (Fig. 2a).
Cells were plated, cultured for 1 day, treated with the compound, and harvested. The collected cells were homogenized with 0.42 mol/L perchloric acid, including IS-dATP at 0.6 μmol/L and IS-ATP at 2.4 μmol/L as internal standards for dATP and ATP, respectively. At each time point, xenograft tumors were excised after single dosing of the test compound. The tissues were homogenized with 0.42 mol/L perchloric acid, including IS-dATP at 3 μmol/L as an internal standard for dATP and ATP. Subsequently, a dichloromethane solution containing 0.5 N tri-n-octylamine was added to the perchloric acid-soluble fraction obtained by centrifugation. The aqueous layer collected after vortex and centrifugation was analyzed by LC-MS/MS. LC-MS/MS analysis was performed with a prominence HPLC system connected to a LCMS-8040 tandem mass spectrometer with ESI probe (SHIMADZU CORPORATION). […]

## Cc1ccc(F)c([C@@H](C)[C@H](NS(=O)(=O)c2ccc(Cl)cc2C(N)=O)c2n[nH]c(=O)o2)c1C [TAS1553, 5-chloro-2-{N-[(1S,2R)-2-(6-fluoro-2,3-dimethylphenyl)-1-(5-oxo-4,5-dihydro-1,3,4-oxadiazol-2-yl)propyl]sulfamoyl}benzamide]
Plasma exposure in rats
  plasma concentration after single oral dose: dose-dependent rise
Human R1
  Kd: 34.9 ± 0.9 nM
[1]; HCC38 and MV-4-11, 2 h
  effect on intracellular dATP area: dramatically reduced
  effect on intracellular dCTP and dTTP areas: increased
[1]; until 2 h, 10 µmol/L
  effect on intracellular ATP pool: did not affect the intracellular ATP pool remarkably
